The target of this experiment is T1, pancreatic α-amylase (Homo sapiens, UniProt P04746).
T1 construct: purchased Sigma-Aldrich
T1 sequence (P04746 16-511): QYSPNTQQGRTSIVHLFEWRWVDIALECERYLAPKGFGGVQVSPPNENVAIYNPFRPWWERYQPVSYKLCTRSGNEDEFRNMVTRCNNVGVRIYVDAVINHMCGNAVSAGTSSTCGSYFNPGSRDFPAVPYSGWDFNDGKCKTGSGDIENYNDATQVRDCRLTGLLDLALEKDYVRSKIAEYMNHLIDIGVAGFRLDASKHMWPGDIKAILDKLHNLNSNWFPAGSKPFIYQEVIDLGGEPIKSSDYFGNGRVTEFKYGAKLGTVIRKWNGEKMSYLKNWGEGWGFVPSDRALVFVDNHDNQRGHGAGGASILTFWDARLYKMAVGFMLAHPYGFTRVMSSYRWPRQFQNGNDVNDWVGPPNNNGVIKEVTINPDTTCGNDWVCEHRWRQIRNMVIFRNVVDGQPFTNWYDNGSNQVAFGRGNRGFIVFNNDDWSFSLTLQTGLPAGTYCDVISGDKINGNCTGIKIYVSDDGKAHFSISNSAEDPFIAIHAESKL
In words: In vitro inhibition of pancreatic α-amylase (starch, DNSA). Format: biochemical. Conditions: pure commercial standards; triplicate; Figure 7 A-C.

By IC50 is commonly meant the concentration at which inhibition is half-maximal. A high value points to weaker potency in that assay.

Method: Pancreatic α-amylase inhibition activity was assessed according to the method described by Daoudiet al. [25]. […] The solutions were prepared by dissolving the enzymes and samples in a phosphate buffer solution (0.1 M, pH 6.9). The mixtures were incubated for 10 min at 37 °C. Next, 200 μL of 1% starch also dissolved in a phosphate buffer was added to the reaction mixture, and all test tubes were incubated for another 20 min at 37 °C. To stop the reaction, 600 μL of DNSA (1 g of 3,5-dinitrosalicylic acid dissolved in 20 mL of NaOH(2N), combined with 30 g of KNaC4H4O6, and filled up to 100 mL with distilled water) was added. Afterward, the mixture was posed in a water bath at 100 °C for 8 min, then it was put in an ice-cold-water bath for a few minutes. About 1 mL of distilled water was added to the sample tubes before their absorbance measurement at 540 nm.
The percentage of inhibition was computed using the following formula:(2) Inhibitory activity (%)=Abs control 540 nm− Abs sample 540 nm/Abs control 540 nm×100
Increasing concentrations were utilized to calculate the IC50 value. The enzymatic assays were carried out as indicated above.

Regarding `Oc1cc(O)c2c(c1)O[C@@H](c1ccc(O)c(O)c1)[C@H](O)C2` [Catechin, (−)-catechin], the IC50 was found to be 30.8 ± 2.11 µM. In the case of `O=c1oc2c(O)c(O)cc3c(=O)oc4c(O)c(O)cc1c4c23` [Ellagic acid] it was 29.4 ± 4.57 µM.

For the origin of these results see PMC9103815, “Phytochemical Analysis, α-Glucosidase and α-Amylase Inhibitory Activities and Acute Toxicity Studies of Extracts from Pomegranate (Punica granatum) Bark, a Valuable Agro-Industrial By-Product” (Foods, 2022).
